Measurements published in patent US20060063754A1, “Methods of treating a sleep disorder” (priority 2004, published 2006).
Where two headings read alike, the source gives them in different places.

How the values were obtained:
alpha 2 receptor = alpha 2 receptor binding assay; details: read-out: Ki Alpha2
Procedure: (§1) Binding assays were performed using Compound 1 and 2 in competitive binding assays with known standards for the H1 histamine receptor, and the M1, M2, and M3 muscarinic receptors, alpha 1 and alpha 2 receptors, and D1 and D2 receptors.

[1] = target: T1, human recombinant M1 muscarinic receptor expressed in CHO cells (Homo sapiens, UniProt P11229); assay: M1 muscarinic receptor binding assay ([3H]-scopolamine, N-methyl chloride)
T1 construct: purchased PerkinElmer, Inc., Wellesley, Mass; host or cells: CHO cells
T1 sequence (P11229 1-460): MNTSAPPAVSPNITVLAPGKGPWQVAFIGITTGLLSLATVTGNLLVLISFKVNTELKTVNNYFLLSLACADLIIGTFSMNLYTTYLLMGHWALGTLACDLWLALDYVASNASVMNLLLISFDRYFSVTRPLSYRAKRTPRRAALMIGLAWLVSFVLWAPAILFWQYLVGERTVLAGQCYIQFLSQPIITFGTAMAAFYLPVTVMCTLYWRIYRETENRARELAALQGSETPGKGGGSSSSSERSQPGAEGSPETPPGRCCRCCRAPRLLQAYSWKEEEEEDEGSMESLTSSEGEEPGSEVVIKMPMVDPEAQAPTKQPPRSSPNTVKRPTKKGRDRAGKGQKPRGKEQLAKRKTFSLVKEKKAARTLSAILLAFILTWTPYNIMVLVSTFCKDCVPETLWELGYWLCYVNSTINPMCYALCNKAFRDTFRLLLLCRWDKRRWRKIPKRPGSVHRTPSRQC

D2 receptor = D2 receptor (Homo sapiens, UniProt P14416); assay: Dopamine D2 binding assay
Sequence of D2 receptor (P14416 whole entry): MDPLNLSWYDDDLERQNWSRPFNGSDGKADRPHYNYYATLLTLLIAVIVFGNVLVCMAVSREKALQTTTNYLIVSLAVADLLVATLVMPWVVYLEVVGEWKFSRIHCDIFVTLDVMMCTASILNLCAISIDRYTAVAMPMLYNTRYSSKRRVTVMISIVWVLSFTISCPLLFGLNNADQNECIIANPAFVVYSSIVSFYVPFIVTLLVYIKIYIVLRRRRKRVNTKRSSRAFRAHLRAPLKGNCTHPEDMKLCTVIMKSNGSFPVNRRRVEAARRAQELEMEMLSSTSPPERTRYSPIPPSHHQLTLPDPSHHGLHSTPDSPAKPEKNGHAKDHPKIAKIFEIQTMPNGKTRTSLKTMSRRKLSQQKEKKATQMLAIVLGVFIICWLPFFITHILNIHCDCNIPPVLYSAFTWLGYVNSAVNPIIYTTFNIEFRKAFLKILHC

[2] = target: T2, human recombinant M3 muscarinic receptor expressed in CHO cells (Homo sapiens, UniProt P20309); assay: M3 muscarinic receptor binding assay
T2 construct: purchased PerkinElmer, Inc., Wellesley, Mass; host or cells: CHO cells
T2 sequence (P20309 whole entry): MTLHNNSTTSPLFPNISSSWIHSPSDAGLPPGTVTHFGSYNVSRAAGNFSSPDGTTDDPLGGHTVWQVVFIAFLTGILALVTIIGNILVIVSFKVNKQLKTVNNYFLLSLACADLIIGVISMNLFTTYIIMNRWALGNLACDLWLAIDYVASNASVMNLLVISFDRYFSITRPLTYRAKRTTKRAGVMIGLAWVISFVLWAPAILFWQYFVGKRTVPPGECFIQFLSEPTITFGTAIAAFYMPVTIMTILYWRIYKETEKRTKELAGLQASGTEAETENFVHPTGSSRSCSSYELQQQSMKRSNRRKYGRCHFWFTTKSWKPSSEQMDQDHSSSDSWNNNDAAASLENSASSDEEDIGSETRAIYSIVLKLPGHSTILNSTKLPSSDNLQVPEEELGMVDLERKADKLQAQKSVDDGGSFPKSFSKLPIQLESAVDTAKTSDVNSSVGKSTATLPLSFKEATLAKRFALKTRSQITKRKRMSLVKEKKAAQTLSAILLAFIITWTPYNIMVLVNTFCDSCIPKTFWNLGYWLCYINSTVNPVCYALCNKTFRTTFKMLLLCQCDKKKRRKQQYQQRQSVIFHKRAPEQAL

[3] = target: T3, human recombinant M2 muscarinic receptor expressed in CHO cells (Homo sapiens, UniProt P08172); assay: M2 muscarinic receptor binding assay
T3 construct: purchased PerkinElmer, Inc., Wellesley, Mass; host or cells: CHO cells
T3 sequence (P08172 1-466): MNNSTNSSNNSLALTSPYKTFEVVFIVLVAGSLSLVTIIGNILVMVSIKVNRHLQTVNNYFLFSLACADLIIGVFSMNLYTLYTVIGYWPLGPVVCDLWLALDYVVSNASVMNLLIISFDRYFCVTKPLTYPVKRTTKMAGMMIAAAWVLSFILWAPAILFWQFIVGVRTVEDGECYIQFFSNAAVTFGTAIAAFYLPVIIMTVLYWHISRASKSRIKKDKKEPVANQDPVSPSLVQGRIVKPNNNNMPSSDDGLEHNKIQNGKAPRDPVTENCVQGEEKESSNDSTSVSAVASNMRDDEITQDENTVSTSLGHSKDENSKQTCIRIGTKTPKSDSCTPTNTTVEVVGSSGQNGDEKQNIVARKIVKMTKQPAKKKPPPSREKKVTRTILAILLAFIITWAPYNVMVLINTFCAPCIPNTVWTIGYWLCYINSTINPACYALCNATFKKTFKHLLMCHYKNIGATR

male Wistar rats = assay: Sleep-wakefulness monitoring (SCORE-2000, EEG/EMG) in rats; assay type: in vivo, rat; details: oral bolus at CT-18, male Wistar rats
Procedure: Sleep-wakefulness, locomotor activity and body temperature are monitored in male Wistar rats treated with a test compound initially at a concentration of 10 mg/kg. Higher and lower doses are assayed for select compounds (e.g., as high as 45 mg/kg, and as low as necessary to establish a no-effect dose). Treatments are administered at CT-18, the peak of the activity dominated period (6 hours after lights-off), and produce soporific (sleep-inducing) effects characterized by increased non-REM sleep time, increased sleep continuity, but without evidence of REM sleep inhibition or rebound insomnia.
Sleep-wakefulness, locomotor activity and body temperature were monitored in vivo with certain of the disclosed sleep-inducing agents (e.g., Compounds 1 and 2) and other compounds described herein. Adult, male Wistar rats (250 g at time of surgery, Charles River Laboratories, Wilmington Mass.) were anesthetized (2% isoflourane in medical grade oxygen) and surgically prepared with a cranial implant to permit chronic electro-encephalogram (EEG) and electromyogram (EMG) recording. Body temperature and locomotor activity were monitored via a miniature transmitter (Mini-Mitter, Bend, Oreg.) surgically placed in the abdomen. The cranial implant consisted of stainless steel screws (two frontal (+3.2 AP from bregma, ±2.0 ML) and two occipital (−6.9 AP, ±5.5 ML)) for EEG recording. Two Teflon®-coated stainless steel wires were positioned under the nuchal trapezoid muscles for EMG recording. All leads were soldered to a miniature connector prior to surgery, and gas sterilized in ethylene oxide. The implant assembly was affixed to the skull with dental acrylic. A minimum of three weeks was allowed for surgical recovery.
Each rat was permanently housed in its own individual recording cage located within separate, ventilated compartments of custom-designed stainless steel cabinets. Each cage was enhanced with a filter-top riser and low-torque swivel-commutator. Food and water were available ad libitum. A 24-hr light-dark cycle (12 hours light, 12 hours dark) was maintained throughout the study. Animals were undisturbed for at least 48 hours before and after treatments.
Sleep and wakefulness were determined using “SCORE-2000™” (Hypnion, Worcester, Mass.)—an internet-based sleep-wake and physiological monitoring system. The system monitored amplified EEG (bandpass 1-30 Hz), integrated EMG (bandpass 10-100 Hz), body temperature and non-specific locomotor activity (LMA) via telemetry, and drinking activity, continuously and simultaneously. Arousal states were classified on-line as non-REM (NREM) sleep, REM sleep, wake, or theta-dominated wake every 10 seconds. Total drinking and locomotor activity counts, and body temperature were quantitated and recorded each minute, using EEG feature extraction and pattern-matching algorithms. […] The classification algorithm used individually-taught EEG-arousal-state templates, plus EMG criteria to differentiate REM sleep from theta-dominated wakefulness, plus behavior-dependent contextual rules (e.g., if the animal was drinking, it is awake). Drinking and locomotor activity intensity (LMA) were recorded every 10 seconds, while body temperature was recorded each minute. Locomotor activity was detected by a telemetry receiver (Mini-Mitter) beneath the cage. Telemetry measures (LMA and body temperature) were not part of the scoring algorithm; thus, sleep-scoring and telemetry data were independent measures.
Compounds were administered at CT-18, the peak of the activity-dominated period, sufficient time was allowed to view the time course of the treatment effect before lights-on (6 hours post-treatment). Compounds were suspended in sterile 0.25% or 0.5% methylcellulose (1-2 ml/kg). Treatments were administered orally as a bolus.
A parallel group study design was employed. […]

hERG channel = hERG channel (Homo sapiens, UniProt Q12809); assay: hERG channel current block, whole cell patch clamp in HEK293 cells; assay type: cell-based; details: HEK293 cells expressing hERG, room temperature
Sequence of hERG channel (Q12809 whole entry): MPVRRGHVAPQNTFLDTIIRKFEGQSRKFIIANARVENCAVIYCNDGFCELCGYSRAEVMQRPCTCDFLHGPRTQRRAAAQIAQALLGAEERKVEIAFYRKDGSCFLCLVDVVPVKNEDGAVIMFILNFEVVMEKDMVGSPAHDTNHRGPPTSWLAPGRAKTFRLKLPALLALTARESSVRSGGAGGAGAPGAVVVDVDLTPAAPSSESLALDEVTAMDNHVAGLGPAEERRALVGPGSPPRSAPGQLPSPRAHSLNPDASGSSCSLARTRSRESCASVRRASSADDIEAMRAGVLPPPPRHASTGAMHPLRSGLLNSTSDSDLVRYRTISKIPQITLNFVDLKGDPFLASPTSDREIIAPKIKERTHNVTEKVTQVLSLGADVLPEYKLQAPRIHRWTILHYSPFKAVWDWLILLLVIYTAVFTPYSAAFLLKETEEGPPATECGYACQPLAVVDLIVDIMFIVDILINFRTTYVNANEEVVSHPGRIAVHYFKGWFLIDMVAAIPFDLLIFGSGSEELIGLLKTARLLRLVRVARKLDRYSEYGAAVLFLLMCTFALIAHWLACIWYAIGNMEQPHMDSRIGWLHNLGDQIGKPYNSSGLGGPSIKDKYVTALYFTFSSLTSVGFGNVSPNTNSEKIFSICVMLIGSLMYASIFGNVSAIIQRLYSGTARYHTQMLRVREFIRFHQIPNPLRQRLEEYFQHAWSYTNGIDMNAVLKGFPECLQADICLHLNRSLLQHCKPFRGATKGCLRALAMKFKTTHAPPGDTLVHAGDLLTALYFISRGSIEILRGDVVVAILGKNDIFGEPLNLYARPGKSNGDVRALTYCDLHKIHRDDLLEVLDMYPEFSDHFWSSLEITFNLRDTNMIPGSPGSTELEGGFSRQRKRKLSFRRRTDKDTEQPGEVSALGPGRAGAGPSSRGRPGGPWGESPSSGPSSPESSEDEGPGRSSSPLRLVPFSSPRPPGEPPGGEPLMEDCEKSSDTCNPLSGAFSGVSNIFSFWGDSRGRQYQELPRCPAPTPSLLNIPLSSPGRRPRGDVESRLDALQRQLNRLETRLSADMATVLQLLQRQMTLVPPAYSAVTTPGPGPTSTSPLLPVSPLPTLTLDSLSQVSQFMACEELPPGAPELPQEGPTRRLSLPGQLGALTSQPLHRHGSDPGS
Procedure: In the hERG assay, hERG channels are expressed in a human embryonic kidney cell line (HEK293) that lacks endogenous IKr. […] (See, Rampe 1997).
In one embodiment of the hERG assay, the positive control (i.e., reference compound) is terfenadine (Sigma, St. Louis Mo.), which has been shown, at a concentration of 60 nM, to block hERG current by approximately 75%. Test compounds are delivered in HEPES-buffered physiological saline (HB-PS)+0.1% dimethyl sulfoxide (DMSO). Each test compound is applied at a concentration of 10 μM to the HEK293 cells expressing hERG (n≧3, where n=the number of cells). Cells are exposed to the test compound for the time necessary to reach steady-state block, but not longer than 10 minutes. The positive control ([…] terfenadine) is applied to two cells (n≧2).
The hERG-exposed cells are then transferred to the recording chamber and superfused with HB-PS solution. The pipette solution for whole cell recordings includes potassium aspartate (130 mM), MgCl2 (5 mM), EGTA (5 mM), ATP (4 mM), and HEPES (10 mM) at a pH adjusted to 7.2 with KOH. Onset and steady state block of hERG current due to the test compound are measured using a pulse pattern with fixed amplitudes (depolarization: +20 mV for 2 seconds; repolarization: −50 mV for 2 seconds), repeated at 10 second intervals, from a holding potential of −80 mV. Peak tail current is measured during the 2 second step to −50 mV. A steady state is maintained for at least 30 seconds before applying the test compound or positive control compound. Peak tail currents are measured until a new steady state is achieved.
The in vitro effects of the disclosed sleep-inducing agents on the hERG (human ether-à-go-go-related gene) channel current (IKr, the rapidly activating, delayed rectifier cardiac potassium current) were determined by ChanTest (Cleveland, Ohio) according to Standard Operating Procedures of ChanTest.
All chemicals used were purchased from Sigma (St. Louis, Mo.) unless otherwise noted and were of ACS reagent grade purity or higher. […]

H1 histamine receptor = target: T4, H1 histamine receptor (Bos taurus, UniProt P30546); assay: H1 histamine receptor competitive binding assay ([3H]pyrilamine); parameters: species or system bovine
T4 construct: the receptors were obtained from bovine cerebellar membrane tissue; from tissue; host or cells: bovine cerebellar membranes
T4 sequence (P30546 whole entry): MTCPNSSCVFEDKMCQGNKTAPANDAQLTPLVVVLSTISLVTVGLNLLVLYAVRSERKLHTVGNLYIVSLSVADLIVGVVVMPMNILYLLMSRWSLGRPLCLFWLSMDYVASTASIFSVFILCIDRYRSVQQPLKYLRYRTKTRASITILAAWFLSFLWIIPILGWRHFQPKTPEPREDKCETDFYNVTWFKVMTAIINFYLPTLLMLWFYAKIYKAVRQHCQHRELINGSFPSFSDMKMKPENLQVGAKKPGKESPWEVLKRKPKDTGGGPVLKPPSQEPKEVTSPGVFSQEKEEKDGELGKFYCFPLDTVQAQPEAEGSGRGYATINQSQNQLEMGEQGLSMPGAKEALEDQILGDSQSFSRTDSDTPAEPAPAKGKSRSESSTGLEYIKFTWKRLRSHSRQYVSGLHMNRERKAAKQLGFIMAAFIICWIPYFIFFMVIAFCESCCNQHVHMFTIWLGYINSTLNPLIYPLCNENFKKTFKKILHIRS

alpha 1 receptor = alpha 1 receptor binding assay; details: read-out: Ki Alpha1
Procedure: as §1

[4] = target: Dopamine, D1 (human recombinant) (Homo sapiens, UniProt P21728); assay: Dopamine D1 binding assay
Sequence of Dopamine, D1 (human recombinant) (P21728 whole entry): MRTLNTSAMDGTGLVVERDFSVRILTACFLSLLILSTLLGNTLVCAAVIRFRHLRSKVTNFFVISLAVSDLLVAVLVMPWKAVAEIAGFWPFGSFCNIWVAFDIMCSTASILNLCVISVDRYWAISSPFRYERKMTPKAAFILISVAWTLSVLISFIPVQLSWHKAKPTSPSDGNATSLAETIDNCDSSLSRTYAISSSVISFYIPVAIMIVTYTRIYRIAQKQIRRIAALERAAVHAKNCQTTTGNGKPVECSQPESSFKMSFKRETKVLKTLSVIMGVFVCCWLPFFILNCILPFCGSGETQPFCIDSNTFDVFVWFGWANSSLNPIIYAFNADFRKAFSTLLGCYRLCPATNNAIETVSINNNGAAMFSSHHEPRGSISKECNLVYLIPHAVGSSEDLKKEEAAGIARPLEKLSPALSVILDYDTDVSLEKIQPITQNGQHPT
Procedure: Dopamine, D1 (human recombinant) binding assay was performed according to published procedures. See, e.g., Jarvie, et al. J. Recept Res., 13(1-4): 573-90 (1993); and Billard, et al. Life Sciences, 35(18): 1885-93 (1984), with modifications

[5] = target: T1, human recombinant M1 muscarinic receptor expressed in CHO cells; details: reference compounds; read-out: Ki of reference compounds in M1 binding assay; cited from earlier work

Structure (SMILES) | Ki (alpha 2 receptor) | Ki [1] | Ki (D2 receptor) | Ki [2] | Ki [3] | LUSB (longest uninterrupted sleep bout) (male Wistar rats; dose 3 mg/kg) | LUSB (longest uninterrupted sleep bout) (male Wistar rats; dose 10 mg/kg) | NREM (male Wistar rats; dose 10 mg/kg) | hERG at 10 micromolar (% blocking of the hERG channel) (hERG channel) | Ki (H1 histamine receptor) | Ki (alpha 1 receptor) | Ki [4] | Ki [5]
O=C(O)CCCN1CCN(C2=Nc3ccccc3Oc3ccccc32)CC1 [Compound 2] | > 10 µM | > 10 µM | > 10 µM | > 10 µM | > 10 µM | 3.8 ± 2.2 min | 7.2 ± 2.0 min | 38 ± 6 min | 2.60% | 0.0542 µM | 3.27 µM | 6.24 µM | –
O=C(O)CCN1CCN(C2=Nc3ccccc3Oc3ccccc32)CC1 [Compound 1] | > 10 µM | > 10 µM | > 10 µM | > 10 µM | > 10 µM | – | 13.2 ± 3.3 min | 22 ± 6 min | 0.70% | 0.041 µM | > 10 µM | 1.13 µM | –
C[N+]1(C)CCC(OC(=O)C(c2ccccc2)c2ccccc2)CC1 [4-DAMP methiodide] | – | – | – | – | – | – | – | – | – | – | – | – | 0.00027 µM
O=C(O)CCN1CCN(C2=Nc3ccccc3Sc3ccccc32)CC1 [Compound 3] | – | – | – | – | – | 6 ± 1.9 min | 5 ± 2.0 min | 43 ± 6 min | 0.80% | – | – | – | –
